These results are taken from patent US9370515B2, “Mixed lineage kinase inhibitors and method of treatments” (CALIFIA BIO, INC., priority 2013, dated 2016).

The target of this test is MLK-3 (Homo sapiens, UniProt Q16584). Kind of test: Biochemical assay for the inhibition of kinase activity for MLK-3 (33P-ATP, HOTSPOT filter binding). As to conditions: activated MLK-3 20 nM, ATP 50 μM, myelin basic protein 20 μM, 20 minutes room temperature. The method, then: Biochemical Assay for the Inhibition of Kinase Activity for MLK-3: Myelin basic protein (20 μM final concentration) is dissolved in 20 mM Hepes (pH 7.5) containing […], […], 0.02% Brij35, 0.02 mg/ml BSA, 0.1 μM Na3VO4, 2 mM DTT, and 1% DMSO. Activated MLK-3 is added and mixed (20 nM final concentration), and inhibitors are added in DMSO. ^33P-ATP (specific activity 500 μCi/μL) is delivered into the reaction mixture to initiate the reaction (ATP concentration is 50 μM) and the mixture is incubated at room temperature for 20 minutes. % Activity is determined using a proprietary HOTSPOT™ microfluidic filter binding technology. See, Expert Opin. Drug Discov. 2008 June; 3(6): 607-621.
Sequence of MLK-3 (Q16584 whole entry): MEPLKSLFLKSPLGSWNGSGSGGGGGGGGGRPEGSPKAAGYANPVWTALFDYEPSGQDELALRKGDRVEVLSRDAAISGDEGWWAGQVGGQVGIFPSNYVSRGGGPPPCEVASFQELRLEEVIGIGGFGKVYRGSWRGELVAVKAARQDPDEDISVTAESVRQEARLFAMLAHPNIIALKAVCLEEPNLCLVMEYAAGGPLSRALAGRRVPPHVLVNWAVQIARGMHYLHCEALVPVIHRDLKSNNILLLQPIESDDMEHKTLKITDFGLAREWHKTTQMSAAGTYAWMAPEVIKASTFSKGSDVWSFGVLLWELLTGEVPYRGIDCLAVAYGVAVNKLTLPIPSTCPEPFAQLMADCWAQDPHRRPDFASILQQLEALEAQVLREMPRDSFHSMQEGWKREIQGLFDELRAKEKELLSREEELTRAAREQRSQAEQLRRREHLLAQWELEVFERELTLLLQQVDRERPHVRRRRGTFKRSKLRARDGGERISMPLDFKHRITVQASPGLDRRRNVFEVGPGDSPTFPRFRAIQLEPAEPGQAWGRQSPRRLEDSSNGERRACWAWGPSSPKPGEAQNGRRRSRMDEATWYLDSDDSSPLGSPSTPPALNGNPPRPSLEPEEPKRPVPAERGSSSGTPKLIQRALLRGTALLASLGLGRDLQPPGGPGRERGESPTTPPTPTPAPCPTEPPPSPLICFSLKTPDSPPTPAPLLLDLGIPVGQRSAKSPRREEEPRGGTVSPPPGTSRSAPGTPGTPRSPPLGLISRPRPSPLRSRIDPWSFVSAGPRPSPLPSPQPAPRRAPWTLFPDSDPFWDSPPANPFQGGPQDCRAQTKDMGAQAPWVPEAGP
Usually IC50 stands for the concentration needed to halve the response being measured. The molecule `COc1ccc(Nc2ccc3ncc(-c4cc5cccc(OC(C)C)c5s4)n3n2)cc1OC` [Compound 80, 3-(7-isopropoxybenzo[b]thiophen-2-yl)-N-(3,4-dimethoxyphenyl)imidazo[1,2-b]pyridazin-6-amine] had an IC50 of 100 to 500 nM.

Take `COc1ccc(Nc2ccc3ncc(-c4cc5cccc(OC)c5[nH]4)n3n2)cc1OC` [Compound 5, 3-(7-methoxy-1H-indol-2-yl)-N-(3,4-dimethoxyphenyl)imidazo[1,2-b]pyridazin-6-amine]: the IC50 was less than 100 nM.

As for `COc1ccc(Nc2ccc3ncc(-c4ccc5ccccc5c4)n3n2)cc1OC` [Compound 62, N-(3,4-dimethoxyphenyl)-3-(naphthalen-3-yl)imidazo[1,2-b]pyridazin-6-amine], the 50% inhibitory concentration (IC50) is less than 5000 nM.

For the molecule `COc1cc2cc(-c3cnc4ccc(N[C@H]5CC[C@H](OC)CC5)nn34)sc2cc1OC` [Compound 201, trans-3-(5,6-dimethoxybenzo[b]thiophen-2-yl)-N-(4-methoxycyclohexyl)imidazo[1,2-b]pyridazin-6-amine], the half-maximal inhibitory concentration (IC50) was 100 to 500 nM.

The molecule `COc1ccc(Nc2ccc3ncc(-c4cc5cccc(O)c5s4)n3n2)cc1OC` [Compound 79, 2-(6-(3,4-dimethoxyphenylamino)imidazo[1,2-b]pyridazin-3-yl)benzo[b]thiophen-7-ol] showed a half-inhibitory concentration (IC50) of less than 100 nM.

Take `COc1cccc2cc(-c3cnc4ccc(N[C@H]5CC[C@H](OC)CC5)nn34)sc12` [Compound 200, trans-3-(7-methoxybenzo[b]thiophen-2-yl)-N-(4-methoxycyclohexyl)imidazo[1,2-b]pyridazin-6-amine]: the IC50 lay in the range of 500 to 1000 nM.

`COc1ccc(Nc2ccc3ncc(-c4cc5cccc(OC(F)(F)F)c5s4)n3n2)cc1OC` [Compound 188, N-(3,4-dimethoxyphenyl)-3-(7-(trifluoromethoxy)benzo[b]thiophen-2-yl)imidazo[1,2-b]pyridazin-6-amine] registered an IC50 of less than 5000 nM.

In turn, `O[C@H]1CC[C@H](Nc2ccc3ncc(-c4cc5cc(F)ccc5s4)n3n2)CC1` [Compound 166, trans-4-(3-(5-fluorobenzo[b]thiophen-2-yl)imidazo[1,2-b]pyridazin-6-ylamino)cyclohexanol] displayed an IC50 of 500 to 1000 nM.

As to `CCOc1ccc(Nc2ccc3ncc(-c4cc5cccc(OC)c5s4)n3n2)cc1OC` [Compound 181, N-(4-ethoxy-3-methoxyphenyl)-3-(7-methoxybenzo[b]thiophen-2-yl)imidazo[1,2-b]pyridazin-6-amine], the IC50 was in the range of 100 to 500 nM.

For `O=C(O)c1cccc(Nc2ccc3ncc(-c4cc5ccccc5s4)n3n2)c1` [Compound 26, 3-(3-(benzo[b]thiophen-2-yl)imidazo[1,2-b]pyridazin-6-ylamino)benzoic acid], the IC50 was in the range of 100 to 500 nM.

For `CCCOc1ccc(Nc2ccc3ncc(-c4cc5cccc(OC)c5s4)n3n2)cc1OC` [Compound 182, N-(3-methoxy-4-propoxyphenyl)-3-(7-methoxybenzo[b]thiophen-2-yl)imidazo[1,2-b]pyridazin-6-amine], the IC50 was less than 5000 nM.

In the case of `COc1cc(Nc2ccc3ncc(-c4cc5cccc(OC)c5s4)n3n2)ccc1OC(F)(F)F` [Compound 184, N-(3-methoxy-4-(trifluoromethoxy)phenyl)-3-(7-methoxybenzo[b]thiophen-2-yl)imidazo[1,2-b]pyridazin-6-amine], the IC50 was less than 5000 nM.

Take `COc1ccc2cc(-c3cnc4ccc(Nc5ccc(OC)c(OC)c5)nn34)sc2c1` [Compound 72, 3-(6-methoxybenzo[b]thiophen-2-yl)-N-(3,4-dimethoxyphenyl)imidazo[1,2-b]pyridazin-6-amine]: the IC50 lay in the range of 100 to 500 nM.

In turn, `Cc1cccc2cc(-c3cnc4ccc(N[C@H]5CC[C@H](O)CC5)nn34)sc12` [Compound 203, trans-4-(3-(7-methylbenzo[b]thiophen-2-yl)imidazo[1,2-b]pyridazin-6-ylamino)cyclohexanol] returned an IC50 of 100 to 500 nM.

For `OCCCNc1ccc2ncc(-c3cc4ccccc4s3)n2n1` [Compound 109, 3-(3-(benzo[b]thiophen-2-yl)imidazo[1,2-b]pyridazin-6-ylamino)propan-1-ol], the IC50 fell in the range of 100 to 500 nM.

On to `COc1cc2cc(-c3cnc4ccc(N[C@H]5CC[C@H](O)CC5)nn34)sc2c(OC)c1OC` [Compound 179, trans-4-(3-(5,6,7-trimethoxybenzo[b]thiophen-2-yl)imidazo[1,2-b]pyridazin-6-ylamino)cyclohexanol], for which the 50% inhibitory concentration (IC50) was less than 100 nM.

In turn, `COc1cc(Nc2ccc3ncc(-c4cc5ccccc5s4)n3n2)ccc1O` [Compound 24, 4-(3-(benzo[b]thiophen-2-yl)imidazo[1,2-b]pyridazin-6-ylamino)-2-methoxyphenol] registered an IC50 of 100 to 500 nM.

Molecule `CC(C)CNc1ccc2ncc(-c3ccc4[nH]ccc4c3)n2n1` [Compound 142, 3-(1H-indol-5-yl)-N-isobutylimidazo[1,2-b]pyridazin-6-amine] had a concentration for half-maximal inhibition (IC50) of less than 5000 nM.

Consider `COc1ccc(Nc2ccc3ncc(-c4cc5cccc(C)c5s4)n3n2)cc1OC` [Compound 202, N-(3,4-dimethoxyphenyl)-3-(7-methylbenzo[b]thiophen-2-yl)imidazo[1,2-b]pyridazin-6-amine], for which the concentration for half-maximal inhibition (IC50) was less than 5000 nM.

Molecule `O[C@H]1CC[C@H](Nc2ccc3ncc(-c4cc5cnccc5s4)n3n2)CC1` [Compound 207, trans-(3-(thieno[3,2-c]pyridin-2-yl)imidazo[1,2-b]pyridazin-6-ylamino)cyclohexanol] had an IC50 of 100 to 500 nM.

Regarding `O[C@H]1CC[C@H](Nc2ccc3ncc(-c4cc5cccnc5s4)n3n2)CC1` [Compound 205, trans-4-(3-(thieno[2,3-b]pyridin-2-yl)imidazo[1,2-b]pyridazin-6-ylamino)cyclohexanol], the IC50 lay within 100 to 500 nM.

`O=C(O)c1cccc(Nc2ccc3ncc(-c4ccc5ccccc5c4)n3n2)c1` [Compound 63, 3-(3-(naphthalen-3-yl)imidazo[1,2-b]pyridazin-6-ylamino)benzoic acid] gave a concentration for half-maximal inhibition (IC50) of 100 to 500 nM.

`O[C@H]1CC[C@H](Nc2ccc3ncc(-c4cc5ccccc5[nH]4)n3n2)CC1` [Compound 88, trans-4-(3-(1H-indol-2-yl)imidazo[1,2-b]pyridazin-6-ylamino)cyclohexanol] yielded an IC50 of 100 to 500 nM.

In turn, `CCCN(C)c1ccc2ncc(-c3cc4ccccc4s3)n2n1` [Compound 107, 3-(benzo[b]thiophen-2-yl)-N-methyl-N-propylimidazo[1,2-b]pyridazin-6-amine] displayed a half-inhibitory concentration (IC50) of less than 5000 nM.

On to `COc1cccc(Nc2ccc3ncc(-c4ccc5[nH]ccc5c4)n3n2)c1` [Compound 54, 3-(1H-indol-5-yl)-N-(3-methoxyphenyl)imidazo[1,2-b]pyridazin-6-amine], for which the 50% inhibitory concentration (IC50) was less than 5000 nM.

For the molecule `COc1ccc(Nc2ccc3ncc(-c4cc5cc(OC)c(OC)c(OC)c5s4)n3n2)cc1OC` [Compound 83, 3-(5,6,7-trimethoxybenzo[b]thiophen-2-yl)-N-(3,4-dimethoxyphenyl)imidazo[1,2-b]pyridazin-6-amine], the IC50 was less than 5000 nM.

In the case of `CCCOc1cccc2cc(-c3cnc4ccc(Nc5ccc(OC)c(OC)c5)nn34)sc12` [Compound 81, N-(3,4-dimethoxyphenyl)-3-(7-propoxybenzo[b]thiophen-2-yl)imidazo[1,2-b]pyridazin-6-amine], the IC50 is 500 to 1000 nM.

As for `COc1cc(Nc2ccc3ncc(-c4cc5ccccc5s4)n3n2)ccc1OCCCO` [Compound 27, 3-(4-(3-(benzo[b]thiophen-2-yl)imidazo[1,2-b]pyridazin-6-ylamino)-2-methoxyphenoxy)propan-1-ol], the 50% inhibitory concentration (IC50) is 100 to 500 nM.

`COc1cc2cc(-c3cnc4ccc(N(C)[C@H]5CC[C@H](O)CC5)nn34)sc2cc1OC` [Compound 177, trans-4-(N-(3-(5,6-dimethoxybenzo[b]thiophen-2-yl)imidazo[1,2-b]pyridazin-6-yl)-N-methylamino)cyclohexanol] came in with a half-inhibitory concentration (IC50) of less than 100 nM.

`O=C(O)c1cc(Nc2ccc3ncc(-c4cc5ccccc5s4)n3n2)ccc1OCCCO` [Compound 44, 5-(3-(benzo[b]thiophen-2-yl)imidazo[1,2-b]pyridazin-6-ylamino)-2-(3-hydroxypropoxy)benzoic acid] gave an IC50 of 500 to 1000 nM.

Take `COc1ccc(Nc2ccc3ncc(-c4cc5cccc(OC(C)=O)c5s4)n3n2)cc1OC` [Compound 78, 2-(6-(3,4-dimethoxyphenylamino)imidazo[1,2-b]pyridazin-3-yl)benzo[b]thiophen-7-yl acetate]: the IC50 lay within 100 to 500 nM.

With `O[C@H]1CC[C@H](Nc2ccc3ncc(-c4ccc5ccccc5c4)n3n2)CC1` [Compound 161, trans-4-(3-(naphthalen-3-yl)imidazo[1,2-b]pyridazin-6-ylamino)cyclohexanol], the 50% inhibitory concentration (IC50) lay in the range of 100 to 500 nM.

On to `CO[C@H]1CC[C@H](Nc2ccc3ncc(-c4cc5cncc(C)c5s4)n3n2)CC1` [Compound 216], for which the IC50 was in the range of 100 to 500 nM.

For the molecule `COc1ccc(Nc2ccc3ncc(-c4cc5cnccc5s4)n3n2)cc1OC` [Compound 206, N-(3,4-dimethoxyphenyl)-3-(thieno[3,2-c]pyridin-2-yl)imidazo[1,2-b]pyridazin-6-amine], the 50% inhibitory concentration (IC50) is less than 100 nM.

`COc1cc2cc(-c3cnc4ccc(Nc5ccc(OCCCO)c(OC)c5)nn34)sc2cc1OC` [Compound 70, 3-(4-(3-(5,6-dimethoxybenzo[b]thiophen-2-yl)imidazo[1,2-b]pyridazin-6-ylamino)-2-methoxyphenoxy)propan-1-ol] had an IC50 of less than 100 nM.

`COC(=O)c1cccc(Nc2ccc3ncc(-c4ccc5[nH]ccc5c4)n3n2)c1` [Compound 61, methyl 3-(3-(1H-indol-5-yl)imidazo[1,2-b]pyridazin-6-ylamino)benzoate] yielded an IC50 of less than 5000 nM.

Regarding `CCCNc1ccc2ncc(-c3ccc4[nH]ccc4c3)n2n1` [Compound 140, 3-(1H-indol-5-yl)-N-propylimidazo[1,2-b]pyridazin-6-amine], the half-inhibitory concentration (IC50) is less than 5000 nM.
